The NIST ThermoML archive (doi:10.1021/je060271a)
Numbers after ± are expanded uncertainties.

Conditions: Liquid, Vibrating tube method

CCCCCCC(=O)OCC(COC(=O)CCCCCC)(COC(=O)CCCCCC)COC(=O)CCCCCC [pentaerythritol tetraheptanoate]
Conditions	mass density [kg/m3]
343.16 K, 13701 kPa	950.5 ± 1.2
343.16 K, 13714 kPa	950.6 ± 1.2
343.16 K, 13726 kPa	950.6 ± 1.2
343.16 K, 13738 kPa	950.7 ± 1.2
343.16 K, 13753 kPa	950.7 ± 1.2
343.16 K, 13764 kPa	950.6 ± 1.2
343.16 K, 13779 kPa	950.7 ± 1.2
343.16 K, 13792 kPa	950.7 ± 1.2
343.16 K, 13806 kPa	950.8 ± 1.2
343.16 K, 13818 kPa	950.6 ± 1.2
343.16 K, 14528 kPa	951.2 ± 1.2
343.16 K, 14542 kPa	951.2 ± 1.2
343.16 K, 16080 kPa	952.4 ± 1.2
343.16 K, 16100 kPa	952.3 ± 1.2
343.16 K, 16118 kPa	952.2 ± 1.2
343.16 K, 32564 kPa	962.8 ± 1.2
343.16 K, 32603 kPa	963 ± 1.2
343.16 K, 32650 kPa	963.1 ± 1.2
343.16 K, 32688 kPa	963 ± 1.2
343.17 K, 14556 kPa	951.3 ± 1.2
343.17 K, 14573 kPa	951.2 ± 1.2
343.17 K, 14631 kPa	951.4 ± 1.2
343.17 K, 14645 kPa	951.3 ± 1.2
343.17 K, 14662 kPa	951.3 ± 1.2
343.17 K, 14676 kPa	951.3 ± 1.2
343.17 K, 14690 kPa	951.3 ± 1.2
343.17 K, 14707 kPa	951.4 ± 1.2
343.17 K, 14721 kPa	951.4 ± 1.2
343.17 K, 14735 kPa	951.3 ± 1.2
343.17 K, 14750 kPa	951.3 ± 1.2
343.17 K, 14767 kPa	951.3 ± 1.2
343.17 K, 14782 kPa	951.4 ± 1.2
343.17 K, 14796 kPa	951.5 ± 1.2
343.17 K, 14814 kPa	951.5 ± 1.2
343.17 K, 14828 kPa	951.3 ± 1.2
343.17 K, 14843 kPa	951.4 ± 1.2
343.17 K, 14858 kPa	951.4 ± 1.2
343.17 K, 14873 kPa	951.5 ± 1.2
343.17 K, 14890 kPa	951.5 ± 1.2
343.17 K, 14902 kPa	951.5 ± 1.2
343.17 K, 14922 kPa	951.4 ± 1.2
343.17 K, 14937 kPa	951.4 ± 1.2
343.17 K, 14952 kPa	951.5 ± 1.2
343.17 K, 14966 kPa	951.6 ± 1.2
343.17 K, 14984 kPa	951.7 ± 1.2
343.17 K, 14999 kPa	951.6 ± 1.2
343.17 K, 15013 kPa	951.5 ± 1.2
343.17 K, 15032 kPa	951.7 ± 1.2
343.17 K, 15048 kPa	951.5 ± 1.2
343.17 K, 15063 kPa	951.4 ± 1.2
343.17 K, 15077 kPa	951.6 ± 1.2
343.17 K, 15092 kPa	951.6 ± 1.2
343.17 K, 15110 kPa	951.6 ± 1.2
343.17 K, 15125 kPa	951.6 ± 1.2
343.17 K, 15140 kPa	951.7 ± 1.2
343.17 K, 15158 kPa	951.6 ± 1.2
343.17 K, 15173 kPa	951.7 ± 1.2
343.17 K, 15191 kPa	951.6 ± 1.2
343.17 K, 15206 kPa	951.6 ± 1.2
343.17 K, 15221 kPa	951.7 ± 1.2
343.17 K, 15240 kPa	951.7 ± 1.2
343.17 K, 15255 kPa	951.6 ± 1.2
343.17 K, 15270 kPa	951.8 ± 1.2
343.17 K, 15286 kPa	951.7 ± 1.2
343.17 K, 15305 kPa	951.7 ± 1.2
343.17 K, 15320 kPa	951.9 ± 1.2
343.17 K, 15338 kPa	951.6 ± 1.2
343.17 K, 15354 kPa	951.8 ± 1.2
343.17 K, 15369 kPa	951.6 ± 1.2
343.17 K, 15387 kPa	951.9 ± 1.2
343.17 K, 15403 kPa	951.8 ± 1.2
343.17 K, 15419 kPa	952 ± 1.2
343.17 K, 15437 kPa	951.8 ± 1.2
343.17 K, 15453 kPa	951.8 ± 1.2
343.17 K, 15469 kPa	951.8 ± 1.2
343.17 K, 15488 kPa	951.9 ± 1.2
343.17 K, 15504 kPa	951.9 ± 1.2
343.17 K, 15520 kPa	951.9 ± 1.2
343.17 K, 15536 kPa	951.9 ± 1.2
343.17 K, 15555 kPa	951.9 ± 1.2
343.17 K, 15571 kPa	952 ± 1.2
343.17 K, 15587 kPa	951.9 ± 1.2
343.17 K, 15606 kPa	951.8 ± 1.2
343.17 K, 15622 kPa	952 ± 1.2
343.17 K, 15638 kPa	952.1 ± 1.2
343.17 K, 15655 kPa	952.1 ± 1.2
343.17 K, 15674 kPa	952.1 ± 1.2
343.17 K, 15691 kPa	952 ± 1.2
343.17 K, 15707 kPa	952 ± 1.2
343.17 K, 15724 kPa	952.2 ± 1.2
343.17 K, 15743 kPa	952 ± 1.2
343.17 K, 15759 kPa	952.1 ± 1.2
343.17 K, 15778 kPa	952 ± 1.2
343.17 K, 15795 kPa	952.1 ± 1.2
343.17 K, 15812 kPa	952.2 ± 1.2
343.17 K, 15831 kPa	952.1 ± 1.2
343.17 K, 15848 kPa	952.2 ± 1.2
343.17 K, 15865 kPa	952.2 ± 1.2
343.17 K, 15884 kPa	952.1 ± 1.2
343.17 K, 15901 kPa	952.2 ± 1.2
343.17 K, 15918 kPa	952.3 ± 1.2
343.17 K, 15938 kPa	952.3 ± 1.2
343.17 K, 15955 kPa	952.2 ± 1.2
343.17 K, 15972 kPa	952.2 ± 1.2
343.17 K, 15989 kPa	952.3 ± 1.2
343.17 K, 16009 kPa	952.3 ± 1.2
343.17 K, 16025 kPa	952.2 ± 1.2
343.17 K, 16042 kPa	952.3 ± 1.2
343.17 K, 16062 kPa	952.2 ± 1.2
343.18 K, 14586 kPa	951.4 ± 1.2
343.18 K, 14600 kPa	951.2 ± 1.2
343.18 K, 14617 kPa	951.3 ± 1.2
